The target of series [1] is T1, Serine/threonine-protein kinase 17A (Homo sapiens, UniProt Q9UEE5).
T1 sequence (Q9UEE5 whole entry): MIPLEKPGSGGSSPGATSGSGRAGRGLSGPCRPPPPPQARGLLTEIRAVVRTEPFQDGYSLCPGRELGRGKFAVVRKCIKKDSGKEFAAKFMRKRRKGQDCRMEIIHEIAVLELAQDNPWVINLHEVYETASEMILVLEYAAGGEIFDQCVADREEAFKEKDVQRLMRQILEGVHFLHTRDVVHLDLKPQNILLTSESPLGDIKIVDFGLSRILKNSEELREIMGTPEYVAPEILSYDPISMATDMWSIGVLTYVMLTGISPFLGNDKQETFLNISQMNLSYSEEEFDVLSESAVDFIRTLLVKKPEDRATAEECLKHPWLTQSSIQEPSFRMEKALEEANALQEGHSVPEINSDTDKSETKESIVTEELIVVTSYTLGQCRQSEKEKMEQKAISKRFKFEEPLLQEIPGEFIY
Put plainly: Inhibition of human N-terminal His-tagged/ TEV cleavage fused DRAK1 (39 to 369 residues) transfected in HEK293T cells using NanoBRET NanoGlo as substrate incubated for 2 hrs by NanoBRET assay. The series is classed as cell-based. On the technique in general: In BRET a luciferase serves as donor, and the signal depends on an acceptor being close.

The target of series [2] is T1, Serine/threonine-protein kinase 17A. Put plainly: Inhibition of human N-terminal His-tagged/ TEV cleavage fused DRAK1 (39 to 369 residues) expressed in Escherichia coli using KKLNRTLSFAEPG peptide as substrate in presence of [gamma-33P]ATP by radiometric based scintillation proximity assay. A general note: In a scintillation proximity assay essentially only radioactivity close to the scintillant gives light.

A short description of series [3]: Binding affinity to wild type full length human CK2alpha2 (1 to 350 residues) expressed in mammalian expression system assessed as change in melting temperature by SYPRO orange dye based DSF assay.
Series [4] has as its target Casein kinase II subunit alpha (Homo sapiens, UniProt P68400). The experiment in a line: Binding affinity to wild type full length human CK2alpha1 (1 to 391 residues) expressed in mammalian expression system assessed as change in melting temperature at 10 uM by SYPRO orange dye based DSF assay. In general terms: DSF heats the sample and reads unfolding from a dye or from intrinsic fluorescence.

Series [5] addresses T2, Serine/threonine-protein kinase 17A (Homo sapiens) (UniProt Q9UEE5).
T2 sequence (whole entry): T1 sequence (Q9UEE5 whole entry)
The experiment in a line: Binding affinity to human N-terminal His-tagged/ TEV cleavage fused DRAK1 (39 to 369 residues) expressed in Escherichia coli assessed as change in melting temperature at 10 uM by SYPRO orange dye based DSF assay.

Series [6] deals with T2, Serine/threonine-protein kinase 17A (Homo sapiens). The experiment in a line: Inhibition of human N-terminal His-tagged/ TEV cleavage fused DRAK1 (39 to 369 residues) expressed in Escherichia coli assessed as change in entropy by isothermal titration calorimetry.
The nature of series [7]: Induction of morphological changes in human MRC9 cells assessed as microtubule damage at 1 to 10 uM incubated for 18 hrs by confocal fluorescence microscopic analysis. The series is classed as toxicity, cell-based. The following applies: mrc9, 18 h, dose 1-10 µM.
A further series deals with D-247MG. Put plainly: Antiproliferative activity against human D-247MG cells assessed as reduction in cell viability after 1 to 7 days by resazurin dye based fluorimetric analysis. The series is classed as functional.
Series [8] deals with U2OS. The experiment in a line: Cytotoxicity against human U2OS cells assessed as increase in total apoptotic cells incubated for 36 hrs by Annexin V staining based method. The series is classed as functional, cell-based.
The nature of series [9]: Cytotoxicity against human MRC9 cells assessed as increase in total apoptotic cells incubated for 36 hrs by Annexin V staining based method. The class given is toxicity, cell-based.
Series [10] deals with HEK-293T. The experiment in a line: Induction of morphological changes in human HEK293T cells assessed as mitochondrial damage at 1 to 10 uM incubated for 18 hrs by confocal fluorescence microscopic analysis. The series is classed as toxicity, cell-based. The following applies: dose 1-10 µM.
Series [11] deals with T2, Serine/threonine-protein kinase 17A (Homo sapiens). Put plainly: Inhibition of human N-terminal His-tagged/ TEV cleavage fused DRAK1 (39 to 369 residues) expressed in Escherichia coli assessed as gibbs free energy change by isothermal titration calorimetry.
A further series has as its system LN-18. Put plainly: Antiproliferative activity against human LN-18 cells assessed as reduction in cell viability after 1 to 7 days by resazurin dye based fluorimetric analysis. The series is classed as functional.
The test system of series [12] is HEK-293T. The experiment in a line: Induction of morphological changes in human HEK293T cells assessed as microtubule damage at 1 to 10 uM incubated for 18 hrs by confocal fluorescence microscopic analysis. The series is classed as toxicity, cell-based. Conditions: dose 1-10 µM.
The test system of series [13] is HEK-293T. Put plainly: Cytotoxicity against human HEK293T cells assessed as increase in total apoptotic cells at 10 uM incubated for 36 hrs by Annexin V staining based method. The class given is toxicity, cell-based.
Series [14] concerns T98G. Put plainly: Antiproliferative activity against human T98G cells assessed as reduction in cell viability measured after 1 to 7 days by resazurin dye based fluorimetric analysis. The class given is functional.
Series [15] deals with HEK-293T. Put plainly: Cytotoxicity against human HEK293T cells assessed as increase in total apoptotic cells at 10 uM incubated for 18 hrs by Annexin V staining based method. The class given is toxicity, cell-based.
A short description of series [16]: Cytotoxicity against human MRC9 cells at 1 uM incubated for 36 hrs. The class given is toxicity, cell-based. Conditions: mrc9, 36 h.
A short description of series [17]: Cytotoxicity against human MRC9 cells assessed as increase in total apoptotic cells at 10 uM incubated for 36 hrs by Annexin V staining based method. The following applies: mrc9, 36 h. The series is classed as toxicity, cell-based.
The target in series [18] is T1, Serine/threonine-protein kinase 17A. Put plainly: Binding affinity to human N-terminal His-tagged/ TEV cleavage fused DRAK1 (39 to 369 residues) expressed in Escherichia coli by isothermal titration calorimetry.
Series [19] has as its system HEK-293T. The experiment in a line: Cytotoxicity against human HEK293T cells at 1 uM incubated for 18 hrs. The class given is toxicity, cell-based.
Series [20] concerns HEK-293T. Put plainly: Cytotoxicity against human HEK293T cells at 1 uM incubated for 36 hrs. The class given is toxicity, cell-based.
For series [21], the system named is U2OS. Put plainly: Cytotoxicity against human U2OS cells assessed as increase in total apoptotic cells at 10 uM incubated for 36 hrs by Annexin V staining based method. The class given is functional, cell-based.
A short description of series [22]: Induction of morphological changes in human MRC9 cells assessed as mitochondrial damage at 1 to 10 uM incubated for 18 hrs by confocal fluorescence microscopic analysis. The class given is toxicity, cell-based. The following applies: mrc9, 18 h, dose 1-10 µM.
The nature of series [23]: Cytotoxicity against human HEK293T cells assessed as increase in total apoptotic cells incubated for 36 hrs by Annexin V staining based method. The class given is toxicity, cell-based, HEK-293T.
For series [24], the target named is T2, Serine/threonine-protein kinase 17A (Homo sapiens). The experiment in a line: Inhibition of human N-terminal His-tagged/ TEV cleavage fused DRAK1 (39 to 369 residues) expressed in Escherichia coli assessed as change in enthalpy by isothermal titration calorimetry.
The test system of another series is LN-229. The experiment in a line: Antiproliferative activity against human LN-229 cells assessed as reduction in cell viability after 1 to 7 days by resazurin dye based fluorimetric analysis. The class given is functional.
Series [25] deals with T98G. Put plainly: Induction of morphological changes in human T98G cells assessed as change in cell shape at 12.5 uM incubated for 5 days by microscopy analysis. The class given is functional, cell-based. The following applies: time 5.0 day.

Active and inactive are the calls of the source. The calls are words filed in the database; no cut-off is given here.

The results in this text go back to ChEMBL document CHEMBL5154923 (J Med Chem, 2022).

The term IC50 denotes the concentration that inhibits the measured activity by half. What is called ΔTm is the change in melting temperature against a reference sample. In general, EC50 refers to the midpoint of the concentration-response curve. For orientation: Kd means the free concentration of one partner at which half of the binding sites on the other are occupied at equilibrium, for simple one-to-one binding.

Sequence of Casein kinase II subunit alpha (P68400 whole entry, looked up, the tested form may be a part): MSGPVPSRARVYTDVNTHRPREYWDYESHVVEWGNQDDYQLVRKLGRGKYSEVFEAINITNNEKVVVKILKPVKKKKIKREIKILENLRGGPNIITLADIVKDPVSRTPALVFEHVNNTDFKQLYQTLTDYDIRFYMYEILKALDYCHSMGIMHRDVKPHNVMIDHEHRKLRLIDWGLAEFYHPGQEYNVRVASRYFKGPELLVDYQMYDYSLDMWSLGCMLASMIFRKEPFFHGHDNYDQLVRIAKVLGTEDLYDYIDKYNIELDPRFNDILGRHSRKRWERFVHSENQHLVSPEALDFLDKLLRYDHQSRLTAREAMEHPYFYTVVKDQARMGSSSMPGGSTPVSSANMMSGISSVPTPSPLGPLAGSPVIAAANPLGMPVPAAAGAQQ

With `CC(NC(=O)c1ccc2cc1OCCOCCNc1ccn3ncc-2c3n1)c1ccccc1` (stereo not drawn), the IC50 in [1] is 71 nM; in series [2], 31 nM. Besides, the results for the ΔTm in series [3], in [4] and in series [5] were 1.9 °C, -0.9 °C and 12.1 °C, respectively.

For the molecule `O=C(NCc1ccccc1)c1ccc2cc1OCCOCCNc1ccn3ncc-2c3n1`, the IC50 in [1] was 171 nM; in series [2], 155 nM. Besides, the thermal shift (ΔTm) in series [3] stood at 4.9 °C; in series [4], 1.7 °C; in series [5], 9.3 °C.

For `C[C@H](NC(=O)c1ccc2cc1OCCOCCNc1ccn3ncc-2c3n1)c1ccncc1`, in series [6], the deltaS was found to be 11.6 cal/mol.K. Further, the Activity entry is “Non-Toxic” in series [7]; “Non-Toxic” in the series on HEK-293T [10]; “Non-Toxic” with HEK-293T [12]; “Toxic” in the series on HEK-293T [13]; “Toxic” in the series on HEK-293T [15]; “Non-Toxic” in series [16]. The Activity result in series [17] is on record as “Toxic”; with HEK-293T [19], “Non-Toxic”; in the series on HEK-293T [20], “Non-Toxic”; in [22], “Non-Toxic”. In addition, the half-maximal inhibitory concentration (IC50) in series [1] was found to be 70 nM; in series [2] it was 15 nM. Besides, the EC50 with D-247MG was 1250 nM; in the series on U2OS [8], greater than 10000 nM; in the series on LN-18 it was 1970 nM; in the series with T98G [14] it was 2340 nM; in the series with LN-229, 2200 nM. Besides, the EC50 at 36 h in series [9] and in series [23] was greater than 10000 nM each time. For the same molecule, the shift in melting temperature (ΔTm) is 0.1 °C in [3], 1.2 °C in series [4] and 12.3 °C in [5]. In addition, the deltaG in series [11] is -10.1 kcal/mol. Further, the affinity in series [18], expressed as Kd, was 9 nM. Further, the result in the series with U2OS [21] and in the series with T98G [25] was Active. In series [24], the deltaH was -6.78 kcal/mol.

The molecule `O=C(c1ccc2cc1OCCOCCNc1ccn3ncc-2c3n1)N1CCOCC1` came in with a 50% inhibitory concentration (IC50) in series [1] greater than 45000 nM. The results for the ΔTm in series [3], in series [4] and in [5] were 2.5 °C, 1.1 °C and 3 °C, respectively.

Turning to `O=C(O)c1ccc2cc1OCCOCCNc1ccn3ncc-2c3n1`, the ΔTm in series [3] came to 11.3 °C; in series [4] it was 10.6 °C; in [5], 7.9 °C.

`CN1CCN(C(=O)c2ccc3cc2OCCOCCNc2ccn4ncc-3c4n2)CC1` gave an IC50 in series [1] greater than 45000 nM. Also, the values for the ΔTm in series [3] and in series [4] were 0.9 °C and 0.3 °C, respectively.
